Experimental data published in US20260193242A1, “USEFUL COMPOUNDS FOR MODULATING INFLAMMATION” (FLAGSHIP PIONEERING INNOVATIONS VI, LLC, priority 2022, published 2026).

What was measured:
[1] = tested on: R848-driven IRF reporter (Lucia luciferase, ISG54 promoter/IFN-stimulated response elements) in THP-1 cells; experiment: TLR7/8 (R848) stimulated interferon response element reporter gene assay in THP1-Dual cells; type: cell-based; conditions: Homo sapiens, THP-1, 10 μM compound, 1 μM R848, THP1-Dual cells; read-out: R848-driven IRF reporter gene assay (Percent inhibition at 10 μM)
Procedure: (§1) Compounds described herein are added to the human leukemic monocyte-like cell line THP-1 for bioactivity assessment. THP1-Dual cells (InvivoGen, San Diego, CA) feature the Lucia gene, a secreted luciferase reporter gene, under the control of an ISG54 minimal promoter in conjunction with five IFN-stimulated response elements. THP1-Dual cells also express a secreted embryonic alkaline phosphatase (SEAP) reporter gene driven by an IFN-β minimal promoter fused to five copies of the NF-κB consensus transcriptional response element and three copies of the c-Rel binding site. As a result, THP1-Dual cells allow the simultaneous study of the NF-κB pathway, by monitoring the activity of SEAP, and the IRF pathway, by assessing the activity of Lucia luciferase.
(§2) THP-1 dual reporter cells were grown in RPMI 1640 culture medium with 2 mM L-glutamine, 25 mM HEPES, 10% heat-inactivated fetal bovine serum, 100 μg/ml Normocin antibiotic (InvivoGen), Pen-Strep antibiotic (100 U/ml-100 μg/ml, InvivoGen). On the day of the assay, cells were seeded in a 384 flat-bottom well plate at 25,000 cells/well and incubated for 2 hours. Cells were then incubated with 10 μM of the compounds described herein or with 1 μM of IKK-16 (Selleck), a potent inhibitor of IκB kinases (IKKs) or with DMSO (vehicle control) for 2 hours, followed by the addition of the synthetic TLR7/8 agonist R848 at 1 μM and incubation for 16 hours. After incubation was concluded, the cultures supernatants were collected and IRF related activity was assessed by measurement of the Lucia luciferase, using Quanti-Luc assay (InvivoGen). NF-κB pathway activity was assessed by quantifying SEAP using Quanti-Blue assay (InvivoGen).

[2] = tested on: R848-driven NFκB reporter (SEAP) in THP-1 cells; experiment: TLR7/8 (R848) stimulated NFκB reporter gene assay in THP1-Dual cells; type: cell-based; conditions: Homo sapiens, THP-1, 10 μM compound, 1 μM R848, THP1-Dual cells; read-out: R848-driven NFκB reporter gene assay (Percent inhibition at 10 μM)
Procedure: as §1, §2

[3] = tested on: LPS induced septic shock, C57/B6L mice; experiment: LPS induced septic shock model in mice; type: in vivo
Procedure: In the LPS induced septic shock model in mice, the TLR4 agonist LPS is injected into the peritoneal cavity of mice, inducing production of pro-inflammatory cytokines that can be measured in blood two hours later (FIG. 2).
Female C57/B6L mice, 5 mice in each group, were injected with LPS (1 mg/kg) to induce septic shock 30 minutes after oral administration of compounds described herein (formulated in Phosal 50) or the controls dexamethasone (formulated in saline), a corticosteroid, and MCC950 (formulated in 0.5% methylcellulose), an inflammasome inhibitor. The mice were euthanized 2 hours after LPS stimulation, and the whole blood was drawn, processed to plasma, and snap frozen. Cytokine levels in plasma were determined by cytometric bead array assay.

[4] = tested on: TNBS-induced colitis, Balb/c mice; experiment: TNBS-induced model of colitis in mice, dosing from day -1, prophylactic mode; type: in vivo; conditions: for pathological score (crypt structure failure, inflammatory cell infiltration): H&E colon; for IL-1ß in plasma / IL-6 in plasma: vs Vehicle group
Procedure: (§3) Female Balb/c mice aged 8 weeks and weighing 18-20 g were housed under standard conditions. The mice were divided into groups with 8-10 mice in each group by body weight. Mice in sham group received intracolonic injection with 50% ethanol (0.1 mL) at day 0, whereas mice in other Trinitrobenzene sulfonic acid (TNBS) colitis model groups received intracolonic injection of 2% TNBS solution in ethanol (0.1 mL) at day 0. The reference compound Mesalazine (Selleck) and test articles described here were dosed from day-1 to day 6. Day 6 was the endpoint, and samples were immediately harvested for the last endpoint. Mesalazine was dissolved in distilled water (pH 7.0) and test articles were dissolved in Phosal 50 PG for delivery by oral gavage.
As noted, dosing of the compounds described herein, as well as the positive control mesalamine, began one day before TNBS administration. Animals in this scenario have not yet developed colitis symptoms before administration of test articles. For this reason, we refer to these conditions as “prophylactic mode”.
(§4) Body weight and Disease Activity Index (DAI) scores were recorded daily to assess the colitis. DAI score was the sum of the weight loss score, stool score and bleeding sub-scores. A blinded scoring system was employed to assess the colitis. The DAI scorer blinded to the group information and animal ID was responsible for the stool consistency and bleeding evaluations. If there was no blood visible with naked eyes, the Fecal occult blood (FOB) test was performed with a fecal occult blood test strip (the improved pyramidon method).
(§5) Colon tissue morphology, damage and healing were assessed by histopathology. The colons were harvested, mesentery and adipose tissue were carefully removed, and internal contents were removed by rinsing with cold PBS. The colons were Swiss-rolled and fixed in neutralized paraformaldehyde followed by H&E staining. Clinical pathologists reviewed the H&E staining and scored blinded with animal ID. The pathological scoring standards were: crypt architecture (normal, 0-severe crypt distortion with loss of entire crypts, 3), degree of inflammatory cell infiltration (normal, 0-dense inflammatory infiltrate, 3), muscle thickening (base of crypt sits on the muscularis mucosae, 0-marked muscle thickening present, 3), goblet cell depletion (absent, 0-present, 1) and crypt abscess (absent, 0-present, 1).
The plasma was collected at Day-1 for PK and cytokine (IL-1ß and IL-6) analysis by mandibular venipuncture.
(§6) The data was compared by ANOVA with post-hoc Dunnett's multiple comparisons test using Graph Pad Prism 7.0 software (San Diego, CA, USA). P-value<0.05 was considered as statistically significant difference. For pairwise comparison of histology scores and cytokines, unpaired t-test was used to calculate statistical significance. Data was expressed as mean±standard error of mean. In figures, statistical significance is denoted by asterisks: *p<0.05 **p<0.01 ***p<0.005, ****p<0.0001.

[5] = tested on: TNBS-induced colitis, Balb/c mice; experiment: TNBS-induced model of colitis in mice, dosing from day 2, therapeutic mode; type: in vivo; conditions: for IL-1B in plasma / IL-6 in plasma: dosing from day 2, vs Vehicle group
Procedure: as §3, §4, §5, §6
Procedures were identical to those in Example 26, except that dosing of the compounds described herein, as well as the positive control mesalamine, began on the second day after TNBS administration, as diagrammed in FIG. 18. Animals in this scenario have developed colitis symptoms before administration of test articles. This is more similar to the clinical scenario with patients with inflammatory bowel disorder presenting with symptoms. For this reason, we refer to these conditions as “therapeutic mode”.

[6] = 30 mg/kg PO in Phosal 50, 30 min before LPS 1 mg/kg, plasma 2 hours after LPS, vs vehicle
[7] = 30 mg/kg PO, QD, dosing from day 2

CN1[C@@H](C(=O)O)CC[C@@H]1[C@@H]1COC(c2ccccc2O)=N1 [Compound I-1, (2R,5R)-5-((R)-2-(2-hydroxyphenyl)-4,5-dihydrooxazol-4-yl)-1-methylpyrrolidine-2-carboxylic acid]
inhibition at 10 µM [1]: 20% | inhibition at 10 µM [2]: 10%

CN1[C@@H](C(=O)O)CC[C@@H]1[C@@H]1COC(c2ncccc2O)=N1 [Compound I-11, (2R,5R)-5-((R)-2-(3-hydroxypyridin-2-yl)-4,5-dihydrooxazol-4-yl)-1-methylpyrrolidine-2-carboxylic acid]
inhibition at 10 µM [1]: 5% | inhibition at 10 µM [2]: 6%

CN1[C@@H](C(=O)O)CC[C@H]1[C@@H]1COC(c2ccccc2O)=N1 [Compound I-2, (2R,5S)-5-((R)-2-(2-hydroxyphenyl)-4,5-dihydrooxazol-4-yl)-1-methylpyrrolidine-2-carboxylic acid]
inhibition at 10 µM [1]: 31% | inhibition at 10 µM [2]: 5%

C[C@@H]1C[C@H]2[C@@H]3CCC4=CC(=O)C=C[C@]4(C)[C@@]3(F)[C@@H](O)C[C@]2(C)[C@@]1(O)C(=O)CO [dexamethasone, reference compound]
activity on plasma cytokines (positive control) ([3]; 1.5 mg/kg PO, formulated in saline): active

Nc1ccc(O)c(C(=O)O)c1 [Mesalazine, reference compound]
total histology scores ([4]; 100 mg/kg PO, QD): lower | pathological score (crypt structure failure, inflammatory cell infiltration) ([4]; 100 mg/kg PO, QD): lower | body weight (% initial weight) recovery ([4]; 100 mg/kg, QD, day -1 to day 6): faster recovery rate | IL-1ß in plasma ([4]; 100 mg/kg, QD): decreased | IL-6 in plasma ([4]; 100 mg/kg, QD): decreased | total histology scores ([5]; 100 mg/kg PO, QD, dosing from day 2): lower | body weight (% initial weight) recovery ([5]; 100 mg/kg, QD, dosing from day 2): faster recovery rate | IL-1B in plasma ([5]; 100 mg/kg, QD): decreased | IL-6 in plasma ([5]; 100 mg/kg, QD): decreased

COCCOCCOc1ccc(C2=N[C@H]([C@@H]3CC[C@H](C(=O)O)N3C)CS2)c(O)c1 [Compound I-8, (2R,5S)-5-((R)-2-(2-hydroxy-4-(2-(2-methoxyethoxy)ethoxy)phenyl)-4,5-dihydrothiazol-4-yl)-1-methylpyrrolidine-2-carboxylic acid]
inhibition at 10 µM [1]: ≥ 50% | inhibition at 10 µM [2]: ≥ 50%

COCCOCCOc1ccc(C2=N[C@H]([C@H]3CC[C@H](C(=O)O)N3C)CS2)c(O)c1 [Compound I-10, (2R,5R)-5-((R)-2-(2-hydroxy-4-(2-(2-methoxyethoxy)ethoxy)phenyl)-4,5-dihydrothiazol-4-yl)-1-methylpyrrolidine-2-carboxylic acid]
inhibition at 10 µM [1]: 3% | inhibition at 10 µM [2]: 14%

COCCOCCOc1ccc(C2=N[C@H]([C@@H]3CC[C@H](C(=O)O)N3C)CO2)c(O)c1 [Compound I-7, (2R,5S)-5-((R)-2-(2-hydroxy-4-(2-(2-methoxyethoxy)ethoxy)phenyl)-4,5-dihydrooxazol-4-yl)-1-methylpyrrolidine-2-carboxylic acid]
inhibition at 10 µM [1]: ≥ 50% | inhibition at 10 µM [2]: 28%

CNC(=O)[C@H]1CC[C@@H]([C@@H]2CSC(c3ccccc3O)=N2)N1C [Compound I-5, (2R,5S)-5-((R)-2-(2-hydroxyphenyl)-4,5-dihydrothiazol-4-yl)-N,1-dimethyl pyrrolidine-2-carboxamide]
inhibition at 10 µM [1]: 17% | inhibition at 10 µM [2]: 27%

CN1[C@@H](C(=O)O)CC[C@@H]1[C@@H]1CSC(c2ccccc2O)=N1 [Compound I-3, (2R,5R)-5-((R)-2-(2-hydroxyphenyl)-4,5-dihydrothiazol-4-yl)-1-methylpyrrolidine-2-carboxylic acid]
IFNγ in plasma [3, 6]: statistically significant decreases | IL-12p70 in plasma [3, 6]: statistically significant decreases | TNFα in plasma [3, 6]: statistically significant decreases | inhibition at 10 µM [1]: ≥ 50% | inhibition at 10 µM [2]: 40% | body weight (% initial weight) recovery ([4]; 30 mg/kg, PO, QD, day -1 to day 6): faster recovery rate | total histology scores ([4]; 1, 3, 10 and 30 mg/kg PO, QD): lower | Disease Activity Index (DAI) scores ([4]; 1, 3, 10 and 30 mg/kg PO, QD, day -1 to day 6): dose-dependent improvement | IL-1ß in plasma ([4]; 1, 3, 10 and 30 mg/kg PO, QD): decreased | IL-6 in plasma ([4]; 1, 3, 10 and 30 mg/kg PO, QD): decreased | pathological score (crypt structure failure, inflammatory cell infiltration) ([4]; 1, 3, 10 and 30 mg/kg PO, QD): lower | ED50 ([4]; Mus musculus, 144 h, PO, QD, day -1 to day 6, read-out: dose for half maximal effect or ED50 (DAI score at Day 6)): 15 mg/kg | colon recovery and mucosal healing ([4]; in a dose-dependent manner, prophylactic mode): promoted the colon recovery and mucosal healing | Disease Activity Index (DAI) scores [5, 7]: improvement | body weight (% initial weight) recovery [5, 7]: faster recovery rate | total histology scores [5, 7]: lower | IL-1B in plasma ([5]; 30 mg/kg PO, QD): decreased | IL-6 in plasma ([5]; 30 mg/kg PO, QD): decreased | colon recovery and mucosal healing ([5]; therapeutic mode): promoted the colon recovery and mucosal healing
